Laboratory results taken from patent US20240245658A1, “TAAR1 AND SEROTONIN MODULATORS, AND PHARMACEUTICAL COMPOSITIONS, AND METHODS OF USE THEREOF” (Sunovion Pharmaceuticals Inc., priority 2021, published 2024).
Where two headings read alike, the source gives them in different places.

Assays:
Format in all cases: cell-based
[1] = target: T1, human TAAR1 receptors (Homo sapiens, UniProt Q96RJ0); assay: TAAR1 Agonism Assay: cAMP HTRF assay for Gs coupled receptor TAAR1 (Euroscreen FAST-0987C); details: CHO-K1 cells expressing human TAAR1, cAMP HTRF
T1 construct: host or cells: CHO-K1
T1 sequence (Q96RJ0 1-339): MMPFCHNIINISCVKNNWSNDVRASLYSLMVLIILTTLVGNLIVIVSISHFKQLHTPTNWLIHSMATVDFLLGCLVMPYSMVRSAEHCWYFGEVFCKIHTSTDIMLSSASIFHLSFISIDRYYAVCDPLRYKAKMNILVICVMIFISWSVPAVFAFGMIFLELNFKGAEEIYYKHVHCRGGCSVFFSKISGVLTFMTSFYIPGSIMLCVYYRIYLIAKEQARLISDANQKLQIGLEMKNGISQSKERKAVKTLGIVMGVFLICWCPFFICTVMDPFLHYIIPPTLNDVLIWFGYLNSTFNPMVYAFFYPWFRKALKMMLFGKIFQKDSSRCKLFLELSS
Method in brief: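 cAMP accumulation detected by HTRF fluorescence ratio, reagents added in lysis buffer and incubated 1 h at about room temperature. Beforehand, cells (about 3,000 per well) sat with test compound at ten concentrations from 0.3 to 10,000 nM in duplicate for roughly 30 min at about room temperature; tyramine dose-response run alongside.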

[2] = target: T2, human 5-HT2A receptor (Homo sapiens, UniProt P28223); assay: 5HT2A Antagonism Assay (Euroscreen FAST-05051), IP-One HTRF
T2 construct: host or cells: CHO-K1
Method in brief: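 CHO-K1 cells expressing receptor, 20,000/well, co-incubated with test compound and reference agonist at its EC80 for 60 min at 37 °C. IP1 accumulation read by HTRF after ~1 h detection at room temperature. Compounds tested in duplicate at 0.3–10,000 nM.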

[3] = target: T3, human 5-HT7 receptor (Homo sapiens, UniProt P34969); assay: 5HT7 Antagonism Assay (Euroscreen FAST-0499C), cAMP HTRF; details: CHO-K1 cells expressing human 5-HT7, reference agonist at EC80, cAMP HTRF
T3 construct: host or cells: CHO-K1
Method in brief: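 CHO-K1 cells expressing human 5-HT7, 3000 per well in Krebs-Ringer HEPES with 1 mM IBMX, were exposed for 30 minutes at room temperature to compound plus reference agonist at its EC80. cAMP was read by HTRF after 1 hour; compounds were tested in duplicate from 0.3 to 10,000 nM.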

[4] = 5-HT2A (IC50), CHO-K1 cells expressing human 5-HT2A, reference agonist at EC80, IP-One
[5] = CHO-K1 cells expressing human 5-HT2A, reference agonist at EC80, IP-One, read-out: 5-HT2A (IC50)
[6] = read-out: 5-HT2A (IC50), CHO-K1 cells expressing human 5-HT2A, reference agonist at EC80, IP-One

T3 sequence (P34969 whole entry): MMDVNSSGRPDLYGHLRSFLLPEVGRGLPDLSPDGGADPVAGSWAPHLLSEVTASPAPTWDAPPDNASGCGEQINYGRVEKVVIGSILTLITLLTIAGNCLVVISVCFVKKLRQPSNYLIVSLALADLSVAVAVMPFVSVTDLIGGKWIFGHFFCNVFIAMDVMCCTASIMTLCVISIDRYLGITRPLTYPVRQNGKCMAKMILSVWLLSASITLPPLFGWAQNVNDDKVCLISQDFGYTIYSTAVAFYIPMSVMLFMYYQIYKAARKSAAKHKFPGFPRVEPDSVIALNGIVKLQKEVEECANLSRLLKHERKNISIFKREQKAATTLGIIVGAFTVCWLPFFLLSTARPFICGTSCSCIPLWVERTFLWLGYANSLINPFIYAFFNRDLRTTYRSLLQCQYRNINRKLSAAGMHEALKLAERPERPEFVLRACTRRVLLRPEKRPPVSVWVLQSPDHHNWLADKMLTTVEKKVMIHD
T2 sequence (P28223 whole entry): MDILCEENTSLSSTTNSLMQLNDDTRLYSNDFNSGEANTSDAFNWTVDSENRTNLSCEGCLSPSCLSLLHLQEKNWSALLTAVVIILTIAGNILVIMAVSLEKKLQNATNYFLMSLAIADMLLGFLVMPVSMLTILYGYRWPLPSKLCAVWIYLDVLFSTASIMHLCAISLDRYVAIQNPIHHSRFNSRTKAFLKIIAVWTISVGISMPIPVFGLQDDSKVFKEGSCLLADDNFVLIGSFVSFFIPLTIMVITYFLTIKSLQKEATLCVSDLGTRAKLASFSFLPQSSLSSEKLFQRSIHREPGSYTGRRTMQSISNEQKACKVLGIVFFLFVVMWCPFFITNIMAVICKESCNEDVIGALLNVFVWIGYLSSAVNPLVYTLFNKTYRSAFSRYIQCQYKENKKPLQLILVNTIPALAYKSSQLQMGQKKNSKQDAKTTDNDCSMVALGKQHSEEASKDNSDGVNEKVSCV

Row | SMILES | EC50 [1] | IC50 [2, 4] | IC50 [3] | IC50 [2, 5] | IC50 [2, 6]
1 | NCC1Cc2c(F)cncc2Oc2ccccc21 (single isomer, unassigned) [Compound 154, (S*)-(4-fluoro-5,6-dihydrobenzo[6,7]oxepino[2,3-c]pyridin-6-yl)methanamine] | > 10 µM | 1 to 10 µM | ≥ 10 µM | – | –
2 | NCC1Cc2ncccc2Oc2cccc(F)c21 (single isomer, unassigned) [Compound 156, (S*)-(9-fluoro-10,11-dihydrobenzo[6,7]oxepino[3,2-b]pyridin-10-yl)methanamine] | < 1 µM | > 10 µM | ≥ 10 µM | – | –
3 | CNCC1Cc2ncccc2Oc2cccc(F)c21 (single isomer, unassigned) [Compound 158, (S*)-(9-fluoro-10,11-dihydrobenzo[6,7]oxepino[3,2-b]pyridin-10-yl)-N-methylmethanamine] | 1 to 10 µM | – | ≥ 10 µM | > 10 µM | –
4 | N#Cc1ccc2c(c1)C(CN)Cc1ncccc1O2 (single isomer, unassigned) [Compound 159, (R*)-10-(aminomethyl)-10,11-dihydrobenzo[6,7]-oxepino[3,2-b]pyridine-8-carbonitrile] | 1 to 10 µM | > 10 µM | ≥ 10 µM | – | –
5 | N#Cc1ccc2c(c1)C(CN)Cc1ncccc1O2 (single isomer, unassigned) [Compound 160, (S*)-10-(aminomethyl)-10,11-dihydrobenzo[6,7]oxepino[3,2-b]pyridine-8-carbonitrile] | < 1 µM | < 1 µM | 1 to 10 µM | – | –
6 | CNCC1Cc2ncccc2Oc2ccc(C#N)cc21 (single isomer, unassigned) [Compound 161, (R*)-10-((methylamino)methyl)-10,11-dihydrobenzo[6,7]oxepino[3,2-b]pyridine-8-carbonitrile] | > 10 µM | – | ≥ 10 µM | 1 to 10 µM | –
7 | CNCC1Cc2ncccc2Oc2ccc(C#N)cc21 (single isomer, unassigned) [Compound 162, (S*)-10-((methylamino)methyl)-10,11-dihydrobenzo[6,7]oxepino[3,2-b]pyridine-8-carbonitrile] | > 10 µM | – | ≥ 10 µM | 1 to 10 µM | –
8 | NCC1Cc2ncccc2Oc2ccc(F)cc21 (single isomer, unassigned) [Compound 163, (R*)-(8-fluoro-10,11-dihydrobenzo[6,7]oxepino[3,2-b]pyridin-10-yl)methanamine] | 1 to 10 µM | 1 to 10 µM | ≥ 10 µM | – | –
9 | NCC1Cc2ncccc2Oc2ccc(F)cc21 (single isomer, unassigned) [Compound 164, (S*)-(8-fluoro-10,11-dihydrobenzo[6,7]oxepino[3,2-b]pyridin-10-yl)methanamine] | < 1 µM | – | ≥ 10 µM | – | 1 to 10 µM
10 | CNCC1Cc2ncccc2Oc2ccc(F)cc21 (single isomer, unassigned) [Compound 165, (R*)-(8-fluoro-10,11-dihydrobenzo[6,7]oxepino[3,2-b]pyridin-10-yl)-N-methylmethanamine] | > 10 µM | < 1 µM | ≥ 10 µM | – | –
11 | CNCC1Cc2ncccc2Oc2ccc(F)cc21 (single isomer, unassigned) [Compound 166, (S*)-(8-fluoro-10,11-dihydrobenzo[6,7]oxepino[3,2-b]pyridin-10-yl)-N-methylmethanamine] | < 1 µM | – | 1 to 10 µM | – | < 1 µM
12 | NCC1Cc2ncccc2Oc2ccc(Cl)cc21 (single isomer, unassigned) [Compound 167, (R*)-(8-chloro-10,11-dihydrobenzo[6,7]oxepino[3,2-b]pyridin-10-yl)methanamine] | < 1 µM | 1 to 10 µM | ≥ 10 µM | – | –
13 | CNCC1Cc2ncccc2Oc2ccc(Cl)cc21 (single isomer, unassigned) [Compound 170, (S*)-1-(8-chloro-10,11-dihydrobenzo[6,7]oxepino[3,2-b]pyridin-10-yl)-N-methylmethanamine] | < 1 µM | < 1 µM | < 1 µM | – | –
14 | NCC1Cc2ncccc2Oc2cc(Cl)ccc21 (single isomer, unassigned) [Compound 171, (R*)-(7-chloro-10,11-dihydrobenzo[6,7]oxepino[3,2-b]pyridin-10-yl)methanamine] | 1 to 10 µM | < 1 µM | ≥ 10 µM | – | –
15 | NCC1Cc2ncccc2Oc2cc(Cl)ccc21 (single isomer, unassigned) [Compound 172, (S*)-(7-chloro-10,11-dihydrobenzo[6,7]oxepino[3,2-b]pyridin-10-yl)methanamine] | < 1 µM | – | ≥ 10 µM | – | < 1 µM
16 | CNCC1Cc2ncccc2Oc2cc(Cl)ccc21 (single isomer, unassigned) [Compound 173, (R*)-1-(7-chloro-10,11-dihydrobenzo[6,7]oxepino[3,2-b]pyridin-10-yl)-N-methylmethanamine] | > 10 µM | – | ≥ 10 µM | < 1 µM | –
17 | CNCC1Cc2ncccc2Oc2cc(Cl)ccc21 (single isomer, unassigned) [Compound 174, (S*)-1-(7-chloro-10,11-dihydrobenzo[6,7]oxepino[3,2-b]pyridin-10-yl)-N-methylmethanamine] | > 10 µM | – | 1 to 10 µM | < 1 µM | –
18 | NCC1Cc2ncccc2Oc2c(F)cccc21 (single isomer, unassigned) [Compound 176, (S*)-(6-fluoro-10,11-dihydrobenzo[6,7]oxepino[3,2-b]pyridin-10-yl)methanamine] | < 1 µM | > 10 µM | ≥ 10 µM | – | –
19 | NCC1Cc2ncc(Cl)cc2Oc2ccccc21 (single isomer, unassigned) [Compound 179, (R*)-(3-chloro-10,11-dihydrobenzo[6,7]oxepino[3,2-b]pyridin-10-yl)methanamine] | 1 to 10 µM | 1 to 10 µM | ≥ 10 µM | – | –
20 | NCC1Cc2ncc(Cl)cc2Oc2ccccc21 (single isomer, unassigned) [Compound 180, (S*)-(3-chloro-10,11-dihydrobenzo[6,7]oxepino[3,2-b]pyridin-10-yl)methanamine] | < 1 µM | – | ≥ 10 µM | – | 1 to 10 µM
21 | C[C@@H]1c2ccccc2Oc2cccnc2[C@@H]1CN (stereo in doubt) [Compound 112, ((10S*,11S*)-10-methyl-10,11-dihydrobenzo[6,7]oxepino[3,2-b]pyridin-11-yl)methanamine] | < 1 µM | > 10 µM | ≥ 10 µM | – | –
22 | C[C@@H]1c2ccccc2Oc2cccnc2[C@H]1CN (stereo in doubt) [Compound 114, ((10S*,11R*)-10-methyl-10,11-dihydrobenzo[6,7]oxepino[3,2-b]pyridin-11-yl)methanamine] | < 1 µM | 1 to 10 µM | ≥ 10 µM | – | –
23 | C[C@H]1c2ccccc2Oc2cccnc2[C@@H]1CN (stereo in doubt) [Compound 115, ((10R*,11S*)-10-methyl-10,11-dihydrobenzo[6,7]oxepino[3,2-b]pyridin-11-yl)methanamine] | 1 to 10 µM | > 10 µM | ≥ 10 µM | – | –
24 | CNC[C@H]1c2ncccc2Oc2ccccc2[C@H]1C (stereo in doubt) [Compound 116, ((10S*,11S*)-10-methyl-10,11-dihydrobenzo[6,7]oxepino[3,2-b]pyridin-11-yl)-N-methylmethanamine] | < 1 µM | 1 to 10 µM | ≥ 10 µM | – | –
25 | CNC[C@@H]1c2ncccc2Oc2ccccc2[C@H]1C (stereo in doubt) [Compound 118, ((10S*,11R*)-10-methyl-10,11-dihydrobenzo[6,7]oxepino[3,2-b]pyridin-11-yl)-N-methylmethanamine] | < 1 µM | 1 to 10 µM | ≥ 10 µM | – | –
26 | CNC[C@H]1c2ncccc2Oc2ccccc2[C@@H]1C (stereo in doubt) [Compound 119, ((10R*,11S*)-10-methyl-10,11-dihydrobenzo[6,7]oxepino[3,2-b]pyridin-11-yl)-N-methylmethanamine] | 1 to 10 µM | 1 to 10 µM | ≥ 10 µM | – | –
27 | NCC1Oc2ccccc2Cc2ccccc21 (stereo not drawn) [Compound 77, (6,11-dihydrodibenzo[b,e]oxepin-6-yl)methanamine] | < 1 µM | – | ≥ 10 µM | 1 to 10 µM | –
